The assay has as its system H460 non-cell lung cancer human tumor cell line. As to the kind of experiment: In vitro human tumor cell line cytotoxicity (proliferation) assay, AlamarBlue. It counts as cell-based. Particulars: Homo sapiens. As for the experimental part: IC50 values are reported in micromolar and result from exposure of compound at various concentrations for 2 hrs followed by a wash step and addition of fresh media followed by growth and cell viability staining and comparison to a media only treated control.
Specifically, exponentially growing cells are seeded at a density of 4×10^3 cells per well in a 96 well plate and incubated at 37° C. in 5% CO2, 95% air and 100% relative humidity for 24 hours prior to addition of test compounds. Compounds are solubilized in 100% DMSO at 200 times the desired final test concentration. At the time of drug addition, compounds are further diluted to 4 times the desired final concentration with complete medium. Aliquots of 50 μl of compound at specified concentrations are added to microtiter wells already containing 150 μl of medium, resulting in the final drug concentration reported. After drug addition, the plates are incubated for an additional 2 hours at 37° C., 5% CO2, 95% air, and 100% relative humidity, then the drug is washed off and fresh medium is added and the plates are incubated for addition 70 hrs at 37° C., 5% CO2, 95% air and 100% relative humidity. At the end of this incubation, the viable cells are quantified using the AlamarBlue assay. The drug concentration resulting in growth inhibition of 50% (IC50) is calculated using Prism software (Irvine, Calif.), and the results are listed in the table.

[1] abbreviates: NCI-H460, H460 cells, under air, 2 hrs exposure, wash, then 70 hrs growth, read-out: IC50 (air).
The mark [2] stands for this setting: NCI-H460, H460 cells, under nitrogen, 2 hrs exposure, wash, then 70 hrs growth, read-out: IC50 (N2).
Where [3] appears, read: NCI-H460, read-out: IC50 (N2), H460 cells, under nitrogen, 2 hrs exposure, wash, then 70 hrs growth.
[4] abbreviates: NCI-H460, read-out: IC50 (air), H460 cells, under air, 2 hrs exposure, wash, then 70 hrs growth.

Where two headings read alike, the source gives them in different places.

In general, IC50 refers to the midpoint of a concentration-inhibition curve.

For the molecule `Cn1c(C(OP(=O)(N2CC2)N2CC2)C(F)(F)F)cnc1[N+](=O)[O-]` (stereo not shown) [compound 2118], the 50% inhibitory concentration (IC50) under setting [1] is 6200 nM and the IC50 under setting [2] came out at 10 nM.
Taken in the same sequence, the figures for `CCc1nc([N+](=O)[O-])n(C)c1COP(=O)(N1CC1)N1CC1` [compound 2119] were 900 nM and 30 nM.
Taken in the same sequence, the figures for `CC(C)(C)C(OP(=O)(N1CC1)N1CC1)c1ccc([N+](=O)[O-])o1` (stereo not shown) [compound 2127] were 18000 nM and 20 nM.
For the molecule `Cn1c(C(OP(=O)(N2CC2)N2CC2)C(F)(F)C(F)(F)F)cnc1[N+](=O)[O-]` (stereo not shown) [compound 2128], the IC50 is, setting by setting: under setting [1], 18000 nM; under setting [2], 20 nM.
The like results for `C=Cc1nc([N+](=O)[O-])n(C)c1COP(=O)(N1CC1)N1CC1` [compound 2129] were, in that order, 700 nM and 80 nM.
Take `C=Cc1nc([N+](=O)[O-])n(C)c1COP(=O)(NCCBr)N1CC1` (stereo not shown) [compound 2130]: the IC50 reads like this: under setting [3], 5 nM; under setting [4], 1300 nM.
For the molecule `Cn1c([N+](=O)[O-])cnc1COP(=O)(N1CC1)N1CC1` [compound 2136], the concentration for half-maximal inhibition (IC50) came out at 24000 nM under setting [1] and 100 nM under setting [2].
For the molecule `Cn1c([N+](=O)[O-])nc(C(F)F)c1COP(=O)(N1CC1)N1CC1` [compound 2137], the 50% inhibitory concentration (IC50) reads like this: under setting [1], 2200 nM; under setting [2], 20 nM.
Taken in the same sequence, the figures for `CC(OP(=O)(N1CC1)N1CC1)c1ccc([N+](=O)[O-])o1` (stereo not shown) [compound 2138] were 300 nM and 6 nM.
Taken in the same sequence, the figures for `O=[N+]([O-])c1ccc(C(OP(=O)(N2CC2)N2CC2)C(F)(F)F)o1` (stereo not shown) [compound 2139] were 300 nM and 4 nM.
Taken in the same sequence, the figures for `Cn1c([N+](=O)[O-])nc(-c2ccco2)c1COP(=O)(N1CC1)N1CC1` [compound 2141] were 500 nM and 80 nM.
Turning to `Cn1c([N+](=O)[O-])cnc1C(OP(=O)(N1CC1)N1CC1)C(F)(F)F` (stereo not shown) [compound 2145], the IC50 reads like this: under setting [1], 170000 nM; under setting [2], 400 nM.
With `Cn1c([N+](=O)[O-])nc(CCN2CCOCC2)c1C(OP(=O)(N1CC1)N1CC1)C(F)(F)F` (stereo not shown) [compound 2147], the IC50 under setting [1] was 310000 nM and the IC50 under setting [2] stood at 1100 nM.
The like results for `CCCCCCCC/C=C/CCCCCCCC(=O)N(C)Cc1nc([N+](=O)[O-])n(C)c1COP(=O)(N1CC1)N1CC1` [compound 2334] were, in that order, 140 nM and 9 nM.
Taken in the same sequence, the figures for `CC(OP(=O)(N1CC1)N1CC1)c1ncc([N+](=O)[O-])n1C` (stereo not shown) [compound 2501] were 21000 nM and 50 nM.
The like results for `CC(C)C(OP(=O)(N1CC1)N1CC1)c1ncc([N+](=O)[O-])n1C` (stereo not shown) [compound 2518] were, in that order, 420000 nM and 600 nM.
For the molecule `Cn1c([N+](=O)[O-])cnc1C(OP(=O)(NCCBr)NCCBr)C1CC1` (stereo not shown) [compound 2519], the IC50 is greater than 500000 nM under setting [3] and greater than 500000 nM under setting [4].
With `Cn1c([N+](=O)[O-])cnc1C(OP(=O)(N1CC1)N1CC1)C1CC1` (stereo not shown) [compound 2520], the half-inhibitory concentration (IC50) by setting is: under setting [1], 20000 nM; under setting [2], 8800 nM.
Turning to `Cn1c([N+](=O)[O-])nc(-c2sc(Br)c(Br)c2Br)c1COP(=O)(N1CC1)N1CC1` [compound 2523], the 50% inhibitory concentration (IC50) is 400 nM under setting [1] and 20 nM under setting [2].
The like results for `Cn1c([N+](=O)[O-])nc(-c2cc(Cl)c(Cl)s2)c1COP(=O)(N1CC1)N1CC1` [compound 2525] were, in that order, 700 nM and 20 nM.
The like results for `C=CCC(OP(=O)(N1CC1)N1CC1)c1ncc([N+](=O)[O-])n1C` (stereo not shown) [compound 2527] were, in that order, 39000 nM and 90 nM.
The like results for `CCCC(OP(=O)(N1CC1)N1CC1)c1ncc([N+](=O)[O-])n1C` (stereo not shown) [compound 2529] were, in that order, 33000 nM and 200 nM.
In the case of `Cn1c([N+](=O)[O-])cnc1C(OP(=O)(N1CC1)N1CC1)C(C)(C)C` (stereo not shown) [compound 2535], the IC50 under setting [1] is 500000 nM and the IC50 under setting [2] amounted to 26000 nM.

The values above are taken from patent publication US10668047B2, “Aziridine containing DNA alkylating agents” (priority 2015, dated 2020).
